Reference: ChEMBL document CHEMBL4359931, “Synthesis, biological evaluation and molecular docking studies of new amides of 4-bromothiocolchicine as anticancer agents” (Bioorg Med Chem, 2019)
Activity calls are given as the source filed them. The rule behind the calls is not given here.

Legend:
[1] = Antiproliferative activity against human ALL5 cells assessed as reduction in cell viability incubated for 120 hrs by MTT assay; type: functional, cell-based; conditions: ALL5, 120 h
A549 = assay: Antiproliferative activity against human A549 cells assessed as reduction in cell viability incubated for 120 hrs by MTT assay; type: functional, cell-based; conditions: A549, 120 h
MCF7 [2] = assay: Antiproliferative activity against human MCF7 cells assessed as reduction in cell viability incubated for 120 hrs by MTT assay; type: functional, cell-based; conditions: MCF7, 120 h
LoVo = assay: Antiproliferative activity against human LoVo cells assessed as reduction in cell viability incubated for 120 hrs by MTT assay; type: functional, cell-based
[3] = Antiproliferative activity against human LoVo/DX cells assessed as reduction in cell viability incubated for 120 hrs by MTT assay; type: functional, cell-based
BALB/3T3 = assay: Antiproliferative activity against mouse BALB/3T3 cells assessed as reduction in cell viability incubated for 120 hrs by MTT assay; type: cell-based; conditions: BALB/3T3, 120 h
[4] = Selectivity index, ratio of IC50 of mouse BALB/3T3 cells to IC50 of human ALL5 cells
[5] = Selectivity index, ratio of IC50 of mouse BALB/3T3 cells to IC50 of human A549 cells
[6] = Selectivity index, ratio of IC50 of mouse BALB/3T3 cells to IC50 of human MCF7 cells; type: toxicity; conditions: BALB/3T3 cells versus MCF7 cells, read-out: Ratio IC50
[7] = Selectivity index, ratio of IC50 of mouse BALB/3T3 cells to IC50 of human LoVo cells; type: toxicity; conditions: BALB/3T3 cells versus LoVo cells, read-out: Ratio IC50
[8] = Selectivity index, ratio of IC50 of mouse BALB/3T3 cells to IC50 of human LoVo/DX cells; type: toxicity; conditions: BALB/3T3 cells versus LoVo/DX cells, read-out: Ratio IC50
[9] = Resistance index, ratio of IC50 of human LoVo/DX cells to IC50 of human LoVo cells; type: functional
Homo sapiens [10] = species on record: Homo sapiens; assay: Induction of cell cycle arrest in human ALL5 cells assessed as increase in 4 N DNA at 5 times of antiproliferative IC50 incubated for 24 hrs by propidium iodide based flow cytometry; type: functional
Homo sapiens [11] = species on record: Homo sapiens; assay: Induction of cell cycle arrest in human ALL5 cells assessed as increase in 4 N DNA at 5 times of antiproliferative IC50 incubated for 48 hrs by propidium iodide based flow cytometry; type: functional
Homo sapiens [12] = species on record: Homo sapiens; assay: Induction of cell death in human ALL5 cells assessed as decrease in 4 N DNA at 5 times of antiproliferative IC50 incubated for 72 hrs by propidium iodide based flow cytometry; type: functional
[13] = Cell cycle arrest in human ALL5 cells assessed as accumulation in G2 phase at 5 times of antiproliferative IC50 incubated for 24 hrs by propidium iodide based flow cytometry (reference value: 10.6 %); type: functional
[14] = Cell cycle arrest in human ALL5 cells assessed as accumulation in G2 phase at 5 times of antiproliferative IC50 incubated for 48 hrs by propidium iodide based flow cytometry (reference value: 11.2 %); type: functional
[15] = Cell cycle arrest in human ALL5 cells assessed as accumulation in G2 phase at 5 times of antiproliferative IC50 incubated for 72 hrs by propidium iodide based flow cytometry (reference value: 11.3 %); type: functional
[16] = Cell cycle arrest in human ALL5 cells assessed as accumulation in G1 phase at 5 times of antiproliferative IC50 incubated for 24 hrs by propidium iodide based flow cytometry (reference value: 68.1 %); type: functional
[17] = Cell cycle arrest in human ALL5 cells assessed as accumulation in G1 phase at 5 times of antiproliferative IC50 incubated for 48 hrs by propidium iodide based flow cytometry (reference value: 67.4 %); type: functional
[18] = Cell cycle arrest in human ALL5 cells assessed as accumulation in G1 phase at 5 times of antiproliferative IC50 incubated for 72 hrs by propidium iodide based flow cytometry (reference value: 59.7 %); type: functional
[19] = Cell cycle arrest in human ALL5 cells assessed as accumulation in subG1 phase at 5 times of antiproliferative IC50 incubated for 24 hrs by propidium iodide based flow cytometry (reference value: 10.5 %); type: functional
[20] = Cell cycle arrest in human ALL5 cells assessed as accumulation in subG1 phase at 5 times of antiproliferative IC50 incubated for 48 hrs by propidium iodide based flow cytometry (reference value: 11 %); type: functional
[21] = Cell cycle arrest in human ALL5 cells assessed as accumulation in subG1 phase at 5 times of antiproliferative IC50 incubated for 72 hrs by propidium iodide based flow cytometry (reference value: 15.5 %); type: functional
MCF7 [22] = assay: Cell cycle arrest in human MCF7 cells assessed as accumulation in G2 phase at 5 times of antiproliferative IC50 incubated for 24 hrs by propidium iodide based flow cytometry (reference value: 22.4 %); type: functional
MCF7 [23] = assay: Cell cycle arrest in human MCF7 cells assessed as accumulation in G2 phase at 5 times of antiproliferative IC50 incubated for 48 hrs by propidium iodide based flow cytometry (reference value: 16 %); type: functional
MCF7 [24] = assay: Cell cycle arrest in human MCF7 cells assessed as accumulation in G2 phase at 5 times of antiproliferative IC50 incubated for 72 hrs by propidium iodide based flow cytometry (reference value: 18.6 %); type: functional
MCF7 [25] = assay: Cell cycle arrest in human MCF7 cells assessed as accumulation in G1 phase at 5 times of antiproliferative IC50 incubated for 24 hrs by propidium iodide based flow cytometry (reference value: 49.9 %); type: functional
MCF7 [26] = assay: Cell cycle arrest in human MCF7 cells assessed as accumulation in G1 phase at 5 times of antiproliferative IC50 incubated for 48 hrs by propidium iodide based flow cytometry (reference value: 40.8 %); type: functional
MCF7 [27] = assay: Cell cycle arrest in human MCF7 cells assessed as accumulation in G1 phase at 5 times of antiproliferative IC50 incubated for 72 hrs by propidium iodide based flow cytometry (reference value: 58 %); type: functional
MCF7 [28] = assay: Cell cycle arrest in human MCF7 cells assessed as accumulation in subG1 phase at 5 times of antiproliferative IC50 incubated for 24 hrs by propidium iodide based flow cytometry (reference value: 7.79 %); type: functional
MCF7 [29] = assay: Cell cycle arrest in human MCF7 cells assessed as accumulation in subG1 phase at 5 times of antiproliferative IC50 incubated for 48 hrs by propidium iodide based flow cytometry (reference value: 9.19 %); type: functional
MCF7 [30] = assay: Cell cycle arrest in human MCF7 cells assessed as accumulation in subG1 phase at 5 times of antiproliferative IC50 incubated for 72 hrs by propidium iodide based flow cytometry (reference value: 3.59 %); type: functional
MCF7 [31] = assay: Cell cycle arrest in human MCF7 cells assessed as accumulation in S phase at 5 times of antiproliferative IC50 incubated for 24 hrs by propidium iodide based flow cytometry (reference value: 19.9 %); type: functional
MCF7 [32] = assay: Cell cycle arrest in human MCF7 cells assessed as accumulation in S phase at 5 times of antiproliferative IC50 incubated for 48 hrs by propidium iodide based flow cytometry (reference value: 34 %); type: functional
MCF7 [33] = assay: Cell cycle arrest in human MCF7 cells assessed as accumulation in S phase at 5 times of antiproliferative IC50 incubated for 72 hrs by propidium iodide based flow cytometry (reference value: 19.8 %); type: functional
[34] = Cell cycle arrest in human ALL5 cells assessed as accumulation in S phase at 5 times of antiproliferative IC50 incubated for 24 hrs by propidium iodide based flow cytometry (reference value: […]); type: functional
[35] = Cell cycle arrest in human ALL5 cells assessed as accumulation in S phase at 5 times of antiproliferative IC50 incubated for 48 hrs by propidium iodide based flow cytometry (reference value: 10.3 %); type: functional
[36] = Cell cycle arrest in human ALL5 cells assessed as accumulation in S phase at 5 times of antiproliferative IC50 incubated for 72 hrs by propidium iodide based flow cytometry (reference value: 13.5 %); type: functional

Row | Compound | IC50 [1] | IC50 (A549) | IC50 (MCF7 [2]) | IC50 (LoVo) | IC50 [3] | IC50 (BALB/3T3) | Ratio IC50 [4] | Ratio IC50 [5] | selectivity ratio [6] | selectivity ratio [7] | selectivity ratio [8] | Ratio IC50 [9] | Activity (Homo sapiens [10]) | Activity (Homo sapiens [12]) | Activity [13] | Activity [14] | Activity [15] | Activity [16] | Activity [17] | Activity [18] | other results
1 | COc1c(Br)c2c(c(OC)c1OC)-c1ccc(SC)c(=O)cc1[C@@H](NC(=O)CCCCl)CC2 | 14 nM | 53.4 nM | 48.9 nM | 12 nM | 266 nM | 64.1 nM | 4.6 | 1.2 | 1.3 | 5.3 | 0.2 | 22.2 | Active | Active | – | – | – | – | – | – | Activity (Homo sapiens [11]): Active
2 | COc1c(Br)c2c(c(OC)c1OC)-c1ccc(SC)c(=O)cc1[C@@H](NC(C)=O)CC2 | 5.4 nM | 10.1 nM | 14.8 nM | 13.6 nM | 135 nM | 103 nM | 19.1 | 10.2 | 7 | 7.6 | 0.8 | 9.6 | Active | Active | 17.7% | 16.6% | 9.83% | 53.2% | 33.4% | 28.8% | Activity [19]: 14.3%; Activity [20]: 30.5%; Activity [21]: 37.2%; Activity (MCF7 [22]): 72.4%; Activity (MCF7 [23]): 66%; Activity (MCF7 [24]): 64.5%; Activity (MCF7 [25]): 13%; Activity (MCF7 [26]): 14.6%; Activity (MCF7 [27]): 15.5%; Activity (MCF7 [28]): 7.93%; Activity (MCF7 [29]): 12%; Activity (MCF7 [30]): 13.1%; Activity (MCF7 [31]): 6.62%; Activity (MCF7 [32]): 7.31%; Activity (MCF7 [33]): 6.88%; Activity [34]: 14.8%; Activity [35]: 19.4%; Activity [36]: 24.2%
3 | COc1c(Br)c2c(c(OC)c1OC)-c1ccc(SC)c(=O)cc1[C@@H](NC(=O)c1ccccc1)CC2 | 5.8 nM | 9.6 nM | 11.4 nM | 6.6 nM | 47.9 nM | 17.4 nM | 3 | 1.8 | 1.5 | 2.6 | 0.4 | 7.3 | Active | Active | 16.9% | 25.4% | 7.51% | 52% | 33.8% | 22.1% | Activity [19]: 16.5%; Activity [20]: 24.7%; Activity [21]: 50.6%; Activity (MCF7 [22]): 75%; Activity (MCF7 [23]): 68.3%; Activity (MCF7 [24]): 61.6%; Activity (MCF7 [25]): 11%; Activity (MCF7 [26]): 14.3%; Activity (MCF7 [27]): 13%; Activity (MCF7 [28]): 6.17%; Activity (MCF7 [29]): 10%; Activity (MCF7 [30]): 15.6%; Activity (MCF7 [31]): 7.85%; Activity (MCF7 [32]): 7.39%; Activity (MCF7 [33]): 9.81%; Activity [34]: 14.7%; Activity [35]: 16%; Activity [36]: 19.7%
